Assay [1] concerns the target human recombinant Aurora A (Homo sapiens (Human), UniProt O14965). In words: Aurora A Kinase Biochemical Assay (ADP-Glo). The note with it: ratio of Aurora A IC50 to PLK4 IC50 (selectivity).
A further assay addresses human recombinant PLK4 (Homo sapiens (Human), UniProt O00444). The experiment in a line: PLK4 Biochemical Assay (ADP-Glo). The note with it: 0.5 nM PLK4, 8.0 µM ATP, 4.7 µM MBP, 6 hours at RT. In short, it runs like this:
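Recombinant human PLK4 (added at 1.0 nM) was preincubated 15 min at RT with compound in 50 mM HEPES pH 7.5, 10 mM MgCl2, 1 mM EGTA, 1 mM DTT, 0.01% Brij-35, 0.01% BSA. ADP formed was detected by ADP-Glo luminescence (40 min ATP depletion, 30 min detection). IC50 came from a four-parameter fit.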

Assay [2] has as its target human recombinant Aurora B (Homo sapiens (Human), UniProt Q96GD4). The experiment in a line: Aurora B Kinase Biochemical Assay (ADP-Glo). The following applies: ratio of Aurora B IC50 to PLK4 IC50 (selectivity). Summed up:
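Recombinant human Aurora B (20 nM in pH 7.5 HEPES buffer with MgCl2, EGTA, DTT, Brij-35, BSA) preincubated with compound 15 min at RT. ADP formed quantified by ADP-Glo luminescence after ATP depletion (40 min) and detection (30 min). IC50 from four-parameter non-linear regression.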

The test system of a further assay is CHP-134 cells. The experiment in a line: CHP134 CellTiter-Glo (CTG) Assay. The assay is classed as cell-based. The following applies: Homo sapiens, CHP-134, 120 h, 5 days, viable cells by CellTiter-Glo. Summed up: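 CHP-134 cells seeded at 200 cells/well for 16 h, then given nine 1:3 serial dilutions in quadruplicate at 37° C, 5% CO2. Viable cells measured by CellTiter-Glo luminescence after 5 days; IC50 calculated from curves.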

The structures appear in SMILES notation.

The values that follow come from US20230365537A1, “POLO LIKE KINASE 4 INHIBITORS” (ORIC Pharmaceuticals, Inc., priority 2021, published 2023).

Chain of human recombinant Aurora A (O14965 whole entry): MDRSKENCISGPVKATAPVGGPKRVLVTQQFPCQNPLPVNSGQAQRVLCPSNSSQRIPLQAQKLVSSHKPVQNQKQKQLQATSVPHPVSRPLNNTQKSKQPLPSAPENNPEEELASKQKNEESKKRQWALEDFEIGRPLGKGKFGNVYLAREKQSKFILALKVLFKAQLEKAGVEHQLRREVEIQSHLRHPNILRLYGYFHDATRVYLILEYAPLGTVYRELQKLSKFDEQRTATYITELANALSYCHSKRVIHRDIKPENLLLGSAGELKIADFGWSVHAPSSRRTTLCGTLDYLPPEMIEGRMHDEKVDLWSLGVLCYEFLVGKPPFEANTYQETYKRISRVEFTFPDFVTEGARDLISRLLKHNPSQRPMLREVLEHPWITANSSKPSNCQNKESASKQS
Chain of human recombinant Aurora B (Q96GD4 whole entry): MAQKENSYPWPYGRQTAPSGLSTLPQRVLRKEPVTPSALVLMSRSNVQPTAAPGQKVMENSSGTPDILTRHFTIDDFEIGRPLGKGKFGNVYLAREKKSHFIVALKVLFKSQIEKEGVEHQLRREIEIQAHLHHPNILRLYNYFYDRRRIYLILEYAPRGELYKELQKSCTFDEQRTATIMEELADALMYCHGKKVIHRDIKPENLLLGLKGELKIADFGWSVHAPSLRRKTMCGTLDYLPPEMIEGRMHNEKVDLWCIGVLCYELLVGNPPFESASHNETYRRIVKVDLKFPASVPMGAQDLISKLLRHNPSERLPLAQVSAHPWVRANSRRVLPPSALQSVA
Chain of human recombinant PLK4 (O00444 whole entry): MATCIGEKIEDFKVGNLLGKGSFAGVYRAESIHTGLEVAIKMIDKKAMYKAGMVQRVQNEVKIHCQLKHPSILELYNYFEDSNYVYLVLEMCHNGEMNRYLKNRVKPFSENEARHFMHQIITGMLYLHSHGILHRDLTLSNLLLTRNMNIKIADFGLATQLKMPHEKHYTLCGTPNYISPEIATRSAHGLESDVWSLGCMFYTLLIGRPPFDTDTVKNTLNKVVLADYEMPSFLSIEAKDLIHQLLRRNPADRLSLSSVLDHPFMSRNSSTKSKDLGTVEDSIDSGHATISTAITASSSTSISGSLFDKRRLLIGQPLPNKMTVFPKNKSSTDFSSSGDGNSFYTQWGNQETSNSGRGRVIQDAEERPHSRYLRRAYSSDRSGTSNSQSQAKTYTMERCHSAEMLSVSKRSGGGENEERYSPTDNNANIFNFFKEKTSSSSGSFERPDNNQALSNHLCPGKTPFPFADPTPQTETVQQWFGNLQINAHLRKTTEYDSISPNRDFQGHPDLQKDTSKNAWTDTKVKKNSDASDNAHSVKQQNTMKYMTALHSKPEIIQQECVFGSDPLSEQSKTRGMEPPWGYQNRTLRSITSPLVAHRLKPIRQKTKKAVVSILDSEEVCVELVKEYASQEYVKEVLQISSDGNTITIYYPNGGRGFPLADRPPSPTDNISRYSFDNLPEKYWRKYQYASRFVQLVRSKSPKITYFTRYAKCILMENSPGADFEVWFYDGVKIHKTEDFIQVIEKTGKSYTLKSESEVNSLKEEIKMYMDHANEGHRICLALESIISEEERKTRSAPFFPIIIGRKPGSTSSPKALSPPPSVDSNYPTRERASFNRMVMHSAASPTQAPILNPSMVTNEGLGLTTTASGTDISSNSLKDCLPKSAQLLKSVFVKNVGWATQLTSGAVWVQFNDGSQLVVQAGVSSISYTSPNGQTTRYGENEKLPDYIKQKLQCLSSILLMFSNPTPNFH

In the case of `COc1ccc2c(c1)[C@]1(C[C@H]1c1ccc3c(Nc4nc(C5CC5)ncc4Cl)n[nH]c3c1)C(=O)N2` [Example 116, (1R,2S)-2-(3-((5-chloro-2-cyclopropylpyrimidin-4-yl)amino)-1H-indazol-6-yl)-5′-methoxyspiro[cyclopropane-1,3′-indolin]-2′-one], in assay [1], the “[Aurora A IC50 (nM)]/[PLK4 IC50 (nM)]” value amounted to 788.5813. Besides, the IC50 was 2.89 nM on human recombinant PLK4 and 134 nM in the assay on CHP-134 cells. Further, the “[Aurora B IC50 (nM)]/[PLK4 IC50 (nM)]” value in assay [2] was 483.7370.
For `COc1ccc2c(c1)[C@]1(C[C@H]1c1ccc3c(Nc4nc(C(C)C)ncc4Cl)n[nH]c3c1)C(=O)N2` [Example 117, (1R,2S)-2-(3-{[5-chloro-2-(propan-2-yl)pyrimidin-4-yl]amino}-1H-indazol-6-yl)-5′-methoxyspiro[cyclopropane-1,3′-indol]-2′(1′H)-one] the same measures were 1388.1947, 2.32 nM, 109 nM and 906.5058.
The corresponding values for `COc1ccc2c(c1)[C@]1(C[C@H]1c1ccc3c(Nc4nc(C5COC5)ncc4Cl)n[nH]c3c1)C(=O)N2` [Example 118, (1R,2S)-2-(3-{[5-chloro-2-(oxetan-3-yl)pyrimidin-4-yl]amino}-1H-indazol-6-yl)-5′-methoxyspiro[cyclopropane-1,3′-indol]-2′(1′H)-one] are 457.0413, 7.32 nM, 2360 nM and 902.3357.
Take `COc1ccc2c(c1)[C@]1(C[C@H]1c1ccc3c(Nc4nc(C5COC5)ncc4OC)n[nH]c3c1)C(=O)N2` [Example 119, (1R,2S)-5′-methoxy-2-(3-{[5-methoxy-2-(oxetan-3-yl)pyrimidin-4-yl)amino}-1H-indazol-6-yl)spiro[cyclopropane-1,3′-indol]-2′(1′H)-one]: the “[Aurora A IC50 (nM)]/[PLK4 IC50 (nM)]” value in assay [1] turned out to be 870.2770. Moreover, the IC50 was determined as 1.59 nM on human recombinant PLK4 and 2660 nM in the assay with CHP-134 cells. Moreover, the “[Aurora B IC50 (nM)]/[PLK4 IC50 (nM)]” value in assay [2] is recorded as 973.5516.
For `COc1ccc2c(c1)[C@]1(C[C@H]1c1ccc3c(Nc4nc(N5CC(O)C5)ncc4Cl)n[nH]c3c1)C(=O)N2` [Example 120, (1R,2S)-2-(3-{[5-chloro-2-(3-hydroxyazetidin-1-yl)pyrimidin-4-yl]amino}-1H-indazol-6-yl)-5′-methoxyspiro[cyclopropane-1,3′-indol]-2′(1′H)-one] the same measures were 444.0366, 3.81 nM, 10000 nM and 684.6657.
For `COc1ccc2c(c1)[C@]1(C[C@H]1c1ccc3c(Nc4nc(C)ncc4OC(F)F)n[nH]c3c1)C(=O)N2` [Example 121, (1R,2S)-2-(3-{[5-(difluoromethoxy)-2-methylpyrimidin-4-yl]amino}-1H-indazol-6-yl)-5′-methoxyspiro[cyclopropane-1,3′-indol]-2′(1′H)-one] the same measures were 875.6967, 1.79 nM, 5320 nM and 230.8807.
For `COc1ccc2c(c1)[C@]1(C[C@H]1c1ccc3c(Nc4nc(C)ncc4OC)n[nH]c3c1F)C(=O)N2` [Example 123, (1R,2R)-2-{7-fluoro-3-[(5-methoxy-2-methylpyrimidin-4-yl)amino]-1H-indazol-6-yl}-5′-methoxyspiro[cyclopropane-1,3′-indol]-2′(1′H)-one], the “[Aurora A IC50 (nM)]/[PLK4 IC50 (nM)]” value in assay [1] was found to be 667.5698. In addition, the IC50 at human recombinant PLK4 was 4.8 nM; with CHP-134 cells it was 2110 nM. In assay [2], the “[Aurora B IC50 (nM)]/[PLK4 IC50 (nM)]” value was determined as 84.1.
